Results as given in patent publication US11660303B2, “2-phenylimidazo[4,5-b]pyridin-7-amine derivates useful as inhibitors of mammalian tyrosine kinase ROR1 activity” (KANCERA AB, priority 2016, dated 2023).

Legend:
Format in all cases: cell-based
[1] = test system: Mino; assay: MTT cytotoxicity assay, Mino; settings: Homo sapiens, Mantle Cell Lymphoma (MCL), incubation 96 h
Protocol: (§1) The MTT assay (Sigma-Aldrich) was used to measure cytotoxic capability of the ROR1 tyrosine kinase inhibitors (ROR1-TKI). Briefly, 2×10^4 cancer cells were incubated in triplicates in 200 μL of RPMI-1640 containing 10% FCS in 96 well plates. ROR1-TKI (dissolved in DMSO), were added to the cells. Cells treated with DMSO were used as negative control. Cells were incubated for 48, 72 or 96 h. An amount of 20 μL MTT solution was added and the cell suspension was incubated for 4 h at 37 degrees C. The reaction was stopped by adding 100 μL MTT solvent (10% SDS in 0.01 M HCl) and was incubated for further 2-4 h. The plate was then read by a microplate reader at 570 nm.
(§2) Results, in terms of IC50 (μM), are shown in Table 4 for a representative compound of the invention, viz. Example 172.

[2] = test system: MDA-MB-231; assay: MTT cytotoxicity assay, MDA-MB-231; settings: Homo sapiens, MDA-MB-231, Triple negative breast cancer, incubation 48 h
Protocol: as §1, §2

[3] = test system: H69; assay: Alamar Blue cell viability assay, H69; settings: Homo sapiens, NCI-H69; H69, Small cell lung cancer (SCLC), alamarBlue, incubation 72 h
Protocol: (§3) Alamar Blue Cell Viability Assay
(§4) Cells were plated 12 hours prior to start of drug treatment, which lasted for 72 hours for all cytotoxicity experiments. Cell viability was estimated by alamarBlue™ Cell Viability Reagent (ThermoFisher, Waltham, Mass.) per manufacturer's instructions.
as §2

[4] = test system: AMO-1; assay: MTT cytotoxicity assay, AMO-1; settings: Homo sapiens, AMO1, AMO-1, Multiple Myeloma (MM), incubation 96 h
Protocol: as §1, §2

[5] = test system: HPB; assay: MTT cytotoxicity assay, HPB; settings: T-cell acute lymphoblastic leukemia (T-ALL), incubation 48 h
Protocol: as §1, §2

[6] = test system: HDLM2; assay: MTT cytotoxicity assay, HDLM2; settings: Homo sapiens, HDLM-2, HDLM2, Hodgkin’s Lymphoma (HL), incubation 48 h
Protocol: as §1, §2

[7] = test system: H82; assay: Alamar Blue cell viability assay, H82; settings: Homo sapiens, NCI-H82; H82, Small cell lung cancer, alamarBlue, incubation 72 h
Protocol: as §3, §4, §2

[8] = test system: MIA PaCa-2; assay: MTT cytotoxicity assay, MIA PaCa-2; settings: Homo sapiens, MIA PaCa-2, Pancreatic cancer, incubation 48 h
Protocol: as §1, §2

[9] = test system: SupB15; assay: Flow cytometry Annexin V/PI apoptosis assay, SupB15; settings: Homo sapiens, SUP-B15, SupB15, B-cell acute lymphoblastic leukemia (B-ALL), incubation 48 h
Protocol: (§5) Flow Cytometry Annexin V/PI Apoptosis Assay
(§6) An amount of 1 ml (10^5 cells/mL) of cells were seeded in each well of 6-well plates with and without compounds for 48 h. Cells were collected, washed with PBS, suspended in 100 μL of Annexin-V binding buffer (BD Biosciences) containing FITC-conjugated Annexin-V and PI (BD Biosciences) and incubated at room temperature in the dark for 20 min. After 20 min of incubation, 150 μL Annexin-V binding buffer was added. Viable cells were identified as the double negative Annexin-V and PI population. Samples were analyzed by a FACS Canto II Flow-cytometer (BD Biosciences).
as §2

[10] = test system: H1299; assay: MTT cytotoxicity assay, H1299; settings: Homo sapiens, NCI-H1299, H1299, Non-small cell lung cancer, incubation 72 h
Protocol: as §1, §2

[11] = test system: H211; assay: Alamar Blue cell viability assay, H211; settings: Homo sapiens, NCI-H211; H211, Small cell lung cancer, alamarBlue, incubation 72 h
Protocol: as §3, §4, §2

[12] = test system: OCI-LY3; assay: MTT cytotoxicity assay, OCI-LY3; settings: Homo sapiens, OCI-LY3, Diffuse large B-cell lymphoma (DLBCL), incubation 48 h
Protocol: as §1, §2

[13] = test system: Granta-519; assay: MTT cytotoxicity assay, Granta-519; settings: Homo sapiens, Granta-519, Mantle Cell Lymphoma (MCL), incubation 96 h
Protocol: as §1, §2

[14] = test system: HCC827; assay: MTT cytotoxicity assay, HCC827; settings: Homo sapiens, HCC827, Non-small cell lung cancer, incubation 72 h
Protocol: as §1, §2

[15] = test system: MEC-2; assay: MTT cytotoxicity assay, MEC-2; settings: MEC2, MEC-2, CLL cell line, DSMZ bank, (ACC 500), incubation 48 h
Protocol: as §1, §2

[16] = test system: SEM cells; assay: Flow cytometry Annexin V/PI apoptosis assay, SEM; settings: B-cell acute lymphoblastic leukemia (B-ALL), incubation 48 h
Protocol: as §5, §6, §2

[17] = test system: SupB15; assay: MTT cytotoxicity assay, SupB15; settings: Homo sapiens, SUP-B15, SupB15, B-cell acute lymphoblastic leukemia (B-ALL), incubation 48 h
Protocol: as §1, §2

[18] = test system: A549; assay: MTT cytotoxicity assay, A549; settings: Homo sapiens, A549, Non-small cell lung cancer (NSCLC), incubation 72 h
Protocol: as §1, §2

[19] = test system: H1963; assay: Alamar Blue cell viability assay, H1963; settings: Homo sapiens, NCI-H1963; H1963, Small cell lung cancer, alamarBlue, incubation 72 h
Protocol: as §3, §4, §2

## CCOCCN1CCN(c2ccc(-c3nc4c(NC5CCN(CC)CC5)c(Br)cnc4[nH]3)cc2)CC1 [Example 172, 6-Bromo-2-{4-[4-(2-ethoxyethyl)piperazin-1-yl]phenyl}-N-(1-ethylpiperidin-4-yl)-3H-imidazo[4,5-b]pyridin-7-amine]
[1]
  IC50: 50 nM
[2]
  IC50: 150 nM
[3]
  IC50: 250 nM
[4]
  IC50: 50 nM
[5]
  IC50: 100 nM
[6]
  IC50: 50 nM
[7]
  IC50: 410 nM
[8]
  IC50: 100 nM
[9]
  IC50: 66 nM
[10]
  IC50: 250 nM
[11]
  IC50: 180 nM
[12]
  IC50: 50 nM
[13]
  IC50: 250 nM
[14]
  IC50: 100 nM
[15]
  IC50: 110 nM
[16]
  IC50: 31 nM
[17]
  IC50: 50 nM
[18]
  IC50: 100 nM
[19]
  IC50: 200 nM
